Assay results taken from PubChem BioAssay AID252 (DTP/NCI, 2004).
Several values for one entry are separate records, joined by “and”; a condition that tells them apart may be missing. Identical values can stand only once. Inconclusive results and toxic doses are left out. The calls were made as follows: active = survival T/C of 150% or more; inactive = T/C below 125% in these data.

Tested on: BDF1 mice, intracerebral L1210 leukemia, survival T/C
Test: NCI In Vivo Anticancer Drug Screen. Data for tumor model L1210 Leukemia (intracerebral) in B6D2F1 (BDF1) mice
Conditions: endpoint: mean survival time, higher = longer survival
Outline: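 Readout is the T/C ratio: survival of compound-treated animals over that of vehicle-treated controls, in mice bearing transplantable tumour.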

[1] = dose: 5.0 mg/kg/injection, schedule: Q01DX001 (ip), vehicle: other
[2] = dose: 10.0 mg/kg/injection, schedule: Q01DX001 (ip), vehicle: other
[3] = dose: 20.0 mg/kg/injection, schedule: Q01DX001 (ip), vehicle: other
[4] = dose: 40.0 mg/kg/injection, schedule: Q01DX001 (ip), vehicle: carboxymethylcellulose (CMC)
[5] = dose: 11.0 mg/kg/injection, schedule: Q01DX001 (ip), vehicle: other

Measured: T/C

O=NN(CCCl)C(=O)N[C@H]1CCCC[C@@H]1Cl
inactive: [1] 102 % of control and 96 % of control | [2] 106 % of control and 113 % of control | dose: 13.0 mg/kg/injection, schedule: Q01DX001 (ip), vehicle: carboxymethylcellulose (CMC) 120 % of control
active: dose: 13.75 mg/kg/injection, schedule: Q01DX001 (oral), vehicle: other 190 % of control and 226 % of control and 230 % of control | dose: 15.25 mg/kg/injection, schedule: Q01DX001 (ip), vehicle: other 158 % of control and 165 % of control and 216 % of control | dose: 19.0 mg/kg/injection, schedule: Q01DX001 (ip), vehicle: carboxymethylcellulose (CMC) 152 % of control | [3] 175 % of control and 181 % of control | dose: 26.0 mg/kg/injection, schedule: Q01DX001 (ip), vehicle: carboxymethylcellulose (CMC) 164 % of control and 221 % of control | dose: 27.5 mg/kg/injection, schedule: Q01DX001 (oral), vehicle: other 315 % of control and 337 % of control and 442 % of control | dose: 30.5 mg/kg/injection, schedule: Q01DX001 (ip), vehicle: carboxymethylcellulose (CMC) 163 % of control | dose: 30.5 mg/kg/injection, schedule: Q01DX001 (ip), vehicle: other 278 % of control and 293 % of control and 361 % of control | [4] 228 % of control and 310 % of control | dose: 41.0 mg/kg/injection, schedule: Q01DX001 (ip), vehicle: other 317 % of control and 391 % of control | dose: 46.0 mg/kg/injection, schedule: Q01DX001 (ip), vehicle: carboxymethylcellulose (CMC) 284 % of control | dose: 55.0 mg/kg/injection, schedule: Q01DX001 (oral), vehicle: other 184 % of control and 271 % of control and 351 % of control | dose: 60.0 mg/kg/injection, schedule: Q01DX001 (ip), vehicle: carboxymethylcellulose (CMC) 297 % of control | dose: 61.0 mg/kg/injection, schedule: Q01DX001 (ip), vehicle: carboxymethylcellulose (CMC) 274 % of control | dose: 61.0 mg/kg/injection, schedule: Q01DX001 (ip), vehicle: other 178 % of control and 254 % of control | dose: 83.0 mg/kg/injection, schedule: Q01DX001 (ip), vehicle: other 270 % of control and 419 % of control

O=NN(CCF)C(=O)NC1CCS(=O)(=O)CC1
inactive: dose: 2.5 mg/kg/injection, schedule: Q01DX001 (ip), vehicle: other 111 % of control | dose: 2.9 mg/kg/injection, schedule: Q01DX001 (ip), vehicle: other 108 % of control and 114 % of control | dose: 3.75 mg/kg/injection, schedule: Q01DX001 (ip), vehicle: other 118 % of control | [1] 124 % of control | dose: 6.0 mg/kg/injection, schedule: Q01DX001 (ip), vehicle: other 121 % of control | dose: 80.0 mg/kg/injection, schedule: Q01DX001 (oral), vehicle: other 86 % of control
active: dose: 4.8 mg/kg/injection, schedule: Q01DX001 (oral), vehicle: other 181 % of control | dose: 7.0 mg/kg/injection, schedule: Q01DX001 (ip), vehicle: other 165 % of control | dose: 7.5 mg/kg/injection, schedule: Q01DX001 (ip), vehicle: other 163 % of control | [2] 183 % of control | [5] 191 % of control | dose: 11.0 mg/kg/injection, schedule: Q01DX001 (oral), vehicle: other 200 % of control and 315 % of control | dose: 12.0 mg/kg/injection, schedule: Q01DX001 (ip), vehicle: other 150 % of control and 214 % of control | dose: 15.0 mg/kg/injection, schedule: Q01DX001 (ip), vehicle: other 202 % of control | dose: 16.0 mg/kg/injection, schedule: Q01DX001 (ip), vehicle: other 284 % of control | [3] 322 % of control | dose: 21.0 mg/kg/injection, schedule: Q01DX001 (oral), vehicle: other 477 % of control and 662 % of control | dose: 24.0 mg/kg/injection, schedule: Q01DX001 (ip), vehicle: other 341 % of control and 410 % of control and 463 % of control | dose: 30.0 mg/kg/injection, schedule: Q01DX001 (ip), vehicle: other 348 % of control | dose: 40.0 mg/kg/injection, schedule: Q01DX001 (ip), vehicle: other 305 % of control | dose: 40.0 mg/kg/injection, schedule: Q01DX001 (oral), vehicle: other 456 % of control and 486 % of control | dose: 48.0 mg/kg/injection, schedule: Q01DX001 (ip), vehicle: other 354 % of control

CC(C)(C)C1CCC(NC(=O)N(CCCl)N=O)CC1 (stereo unspecified)
active: dose: 177.0 mg/kg/injection, schedule: Q01DX001 (ip), vehicle: other 170 % of control | dose: 250.0 mg/kg/injection, schedule: Q01DX001 (ip), vehicle: other 156 % of control and 158 % of control | dose: 354.0 mg/kg/injection, schedule: Q01DX001 (ip), vehicle: other 247 % of control | dose: 375.0 mg/kg/injection, schedule: Q01DX001 (ip), vehicle: other 196 % of control and 210 % of control | dose: 472.0 mg/kg/injection, schedule: Q01DX001 (ip), vehicle: other 155 % of control | dose: 500.0 mg/kg/injection, schedule: Q01DX001 (ip), vehicle: other 186 % of control and 201 % of control | dose: 750.0 mg/kg/injection, schedule: Q01DX001 (ip), vehicle: other 152 % of control
inactive: dose: 708.0 mg/kg/injection, schedule: Q01DX001 (ip), vehicle: other 86 % of control

CC(=O)NC1=C(N2CC2)C(=O)C(NC(C)=O)=C(N2CC2)C1=O
inactive: dose: 0.12 mg/kg/injection, schedule: Q01DX009 (ip), vehicle: saline with Tween-80 105 % of control | dose: 0.25 mg/kg/injection, schedule: Q01DX005 (ip), vehicle: saline with Tween-80 97 % of control | dose: 0.25 mg/kg/injection, schedule: Q01DX009 (ip), vehicle: saline with Tween-80 105 % of control | dose: 0.25 mg/kg/injection, schedule: Q01DX009 (ip), vehicle: saline 110 % of control and 117 % of control | dose: 0.5 mg/kg/injection, schedule: Q01DX005 (ip), vehicle: saline with Tween-80 105 % of control | dose: 0.5 mg/kg/injection, schedule: Q01DX009 (ip), vehicle: saline with Tween-80 108 % of control | dose: 0.5 mg/kg/injection, schedule: Q01DX Z (ip), vehicle: carboxymethylcellulose (CMC) 113 % of control | dose: 1.0 mg/kg/injection, schedule: Q01DX005 (ip), vehicle: saline with Tween-80 111 % of control | dose: 2.0 mg/kg/injection, schedule: Q01DX005 (ip), vehicle: saline with Tween-80 115 % of control | dose: 2.0 mg/kg/injection, schedule: Q01DX009 (ip), vehicle: saline 96 % of control and 98 % of control | dose: 2.0 mg/kg/injection, schedule: Q01DX Z (ip), vehicle: carboxymethylcellulose (CMC) 119 % of control

O=NN(CCCl)C(=O)N[C@H]1CCCC[C@H]1Cl
active: dose: 51.0 mg/kg/injection, schedule: Q01DX001 (ip), vehicle: carboxymethylcellulose (CMC) 281 % of control and 306 % of control | dose: 54.0 mg/kg/injection, schedule: Q01DX001 (ip), vehicle: carboxymethylcellulose (CMC) 198 % of control | dose: 62.0 mg/kg/injection, schedule: Q01DX001 (ip), vehicle: carboxymethylcellulose (CMC) 159 % of control and 165 % of control and 176 % of control | dose: 72.0 mg/kg/injection, schedule: Q01DX001 (ip), vehicle: carboxymethylcellulose (CMC) 251 % of control | dose: 90.0 mg/kg/injection, schedule: Q01DX001 (ip), vehicle: carboxymethylcellulose (CMC) 209 % of control and 221 % of control and 270 % of control | dose: 101.0 mg/kg/injection, schedule: Q01DX001 (ip), vehicle: carboxymethylcellulose (CMC) 413 % of control and 550 % of control | dose: 108.0 mg/kg/injection, schedule: Q01DX001 (ip), vehicle: carboxymethylcellulose (CMC) 307 % of control | dose: 135.0 mg/kg/injection, schedule: Q01DX001 (ip), vehicle: carboxymethylcellulose (CMC) 278 % of control and 305 % of control
inactive: dose: 8.0 mg/kg/injection, schedule: Q01DX001 (ip), vehicle: carboxymethylcellulose (CMC) 103 % of control | dose: 12.0 mg/kg/injection, schedule: Q01DX001 (ip), vehicle: carboxymethylcellulose (CMC) 106 % of control and 110 % of control and 90 % of control | dose: 18.0 mg/kg/injection, schedule: Q01DX001 (ip), vehicle: carboxymethylcellulose (CMC) 106 % of control | [4] 117 % of control | dose: 203.0 mg/kg/injection, schedule: Q01DX001 (ip), vehicle: carboxymethylcellulose (CMC) 119 % of control and 94 % of control

O=NN(CCCl)C(=O)NC1CS(=O)(=O)CS(=O)(=O)C1
inactive: [5] 118 % of control | dose: 17.0 mg/kg/injection, schedule: Q01DX001 (ip), vehicle: other 117 % of control | dose: 56.0 mg/kg/injection, schedule: Q01DX001 (ip), vehicle: other 119 % of control
